Marks after values point to notes of the source that are not given here. Values belong to the compound of their own block, whether it stands above or below them.
Key:
human MC-5R [1] = target: T1, human MC-5R (Homo sapiens, UniProt P33032); assay: Membrane binding assay, competition with 125I-NDP-alpha-MSH; conditions: human receptor; average of at least 3 determinations
T1 construct: expressed in transfected cells; host or cells: CHO- or L-cells or other eukaryotic cells
Experimental: (§1) A. Binding Assay. The membrane binding assay was used to identify competitive inhibitors of ^125I-NDP-alpha-MSH binding to cloned human MCRs expressed in L- or CHO-cells.
(§2) Cell lines expressing melanocortin receptors were grown in T-180 flasks containing selective medium of the composition: 1 L Dulbecco's modified Eagles Medium (DMEM) with 4.5 g L-glucose, 25 mM Hepes, without sodium pyruvate, (Gibco/BRl); 100 ml 10% heat-inactivated fetal bovine serum (Sigma); 10 ml 10,000 unit/ml penicillin & 10,000 ug/ml streptomycin (Gibco/BRl); 10 ml 200 mM L-glutamine (Gibco/BRl); 1 mg/ml Geneticin (G418) (Gibco/BRl). The cells were grown at 37° C. with CO2 and humidity control until the desired cell density and cell number was obtained.
(§3) The medium was poured off and 10 mls/monolayer of enzyme-free dissociation media (Specialty Media Inc.) was added. The cells were incubated at 37° C. for 10 minutes or until cells sloughed off when flask was banged against hand.
(§4) The cells were harvested into 200 ml centrifuge tubes and spun at 1000 rpm, 4° C., for 10 min. […]
(§5) IC50's were determined in a competition binding assay with ^125I-NDP-alpha-MSH as ligand using crude membranes prepared from cell lines expressing the appropriate MC-R. Functional EC50's were determined by application of compound to intact cells followed by direct measurement of cAMP as described in the Biological Assays section above.

human MC-1R = target: T2, human MC-1R (Homo sapiens, UniProt Q01726); assay: Functional cell based cAMP assay; conditions: cAMP relative to alpha-MSH at 10 μM defined as 100% agonist
T2 construct: expressed in transfected cells; host or cells: CHO- or L-cells or other eukaryotic cells
Text: (§6) B. Functional assay. Functional cell based assays were developed to discriminate melanocortin receptor agonists from antagonists.
(§7) Cells (for example, CHO- or L-cells or other eukaryotic cells) expressing a human melanocortin receptor (see e.g. Yang-YK; Ollmann-MM; Wilson-BD; Dickinson-C; Yamada-T; Barsh-GS; Gantz-I; Mol-Endocrinol. 1997 Mar; 11(3): 274-80) were dissociated from tissue culture flasks by rinsing with Ca and Mg free phosphate buffered saline (14190-136, Life Technologies, Gaithersburg, Md.) and detached following 5 minutes incubation at 37° C. with enzyme free dissociation buffer (S-014-B, Specialty Media, Lavellette, N.J.). Cells were collected by centrifugation and resuspended in Earle's Balanced Salt Solution (14015-069, Life Technologies, Gaithersburg, Md.) with additions of 10 mM HEPES pH 7.5, 5 mM MgCl2, 1 mM glutamine and 1 mg/ml bovine serum albumin. Cells were counted and diluted to 1 to 5×10^6/ml. The phosphodiesterase inhibitor 3-isobutyl-1-methylxanthine was added to cells to 0.6 mM.
(§8) Test compounds were diluted in dimethylsulfoxide (DMSO) (10^−5 to 10^−10 M) and 0.1 volume of compound solution was added to 0.9 volumes of cell suspension; the final DMSO concentration was 1%. After room temperature incubation for 45 min., cells were lysed by incubation at 100° C. for 5 min. to release accumulated cAMP.
(§9) cAMP was measured in an aliquot of the cell lysate with the Amersham (Arlington Heights, Ill.) cAMP detection assay (RPA556). The amount of cAMP production which resulted from an unknown compound was compared to that amount of cAMP produced in response to alpha-MSH at 10 μM which was defined as a 100% agonist.
as §5

human MC-3R = target: T3, human MC-3R (Homo sapiens, UniProt P41968); assay: Functional cell based cAMP assay; conditions: cAMP relative to alpha-MSH at 10 μM defined as 100% agonist
T3 construct: expressed in transfected cells; host or cells: CHO- or L-cells or other eukaryotic cells
Text: as §6, §7, §8, §9, §5

human MC-5R [2] = target: T1, human MC-5R; assay: Functional cell based cAMP assay
Text: as §6, §7, §8, §9, §5

[3] = tested on: conscious rat model of reflexogenic erections; assay: Rat ex copula assay, conscious rat model of reflexogenic erections; assay type: in vivo; conditions: for penile erections, % Increase from Vehicle or Baseline: rats; for efficacy of reference drugs in conscious rat model of reflexogenic erections: positive reference controls
Experimental: Sexually mature male Caesarian Derived Sprague Dawley (CD) rats (over 60 days old) are used with the suspensory ligament surgically removed to prevent retraction of the penis back into the penile sheath during the ex copula evaluations. Animals receive food and water ad lib and are kept on a normal light/dark cycle. Studies are conducted during the light cycle.
1) Conditioning to Supine Restraint for Ex Copula Reflex Tests. This conditioning takes ˜4 days. Day 1, the animals are placed in a darkened restrainer and left for 15-30 minutes. Day 2, the animals are restrained in a supine position in the restrainer for 15-30 minutes. Day 3, the animals are restrained in the supine position with the penile sheath retracted for 15-30 minutes. Day 4, the animals are restrained in the supine position with the penile sheath retracted until penile responses are observed. Some animals require additional days of conditioning before they are completely acclimated to the procedures; non-responders are removed from further evaluation. After any handling or evaluation animals are given a treat to ensure positive reinforcement.
2) Ex Copula Reflex Tests. Rats are gently restrained in a supine position with their anterior torso placed inside a cylinder of adequate size to allow for normal head and paw grooming. For a 400-500 gram rat, the diameter of the cylinder is approximately 8 cm. The lower torso and hind limbs are restrained with a non-adhesive material (vetrap). An additional piece of vetrap with a hole in it, through which the glans penis will be passed, is fastened over the animal to maintain the preputial sheath in a retracted position. Penile responses will be observed, typically termed ex copula genital reflex tests. Typically, a series of penile erections will occur spontaneously within a few minutes after sheath retraction. The types of normal reflexogenic erectile responses include elongation, engorgement, cup and flip. An elongation is classified as an extension of the penile body. Engorgement is a dilation of the glans penis. A cup is defined as an intense erection where the distal margin of the glans penis momentarily flares open to form a cup. A flip is a dorsiflexion of the penile body.
Baseline and or vehicle evaluations are conducted to determine how and if an animal will respond. Some animals have a long duration until the first response while others are non-responders altogether. During this baseline evaluation latency to first response, number and type of responses are recorded. The testing time frame is 15 minutes after the first response.
[…] All evaluations are videotaped and scored later. Data are collected and analyzed using paired 2 tailed t-tests to compared baseline and/or vehicle evaluations to drug treated evaluations for individual animals. Groups of a minimum of 4 animals are utilized to reduce variability.
Positive reference controls are included in each study to assure the validity of the study. Animals can be dosed by a number of routes of administration depending on the nature of the study to be performed. The routes of administration includes intravenous (IV), intraperitoneal (IP), subcutaneous (SC) and intracerebral ventricular (ICV).
In this non-random crossover model, rats were placed in the supine position with the preputial sheath retracted to initiate a reflex arc. The number of erections was counted in the 15 minute period following the first erection.

human MC-2R [4] = target: T4, human MC-2R (Homo sapiens, UniProt Q01718); assay: Functional cell based cAMP assay; parameters: expressed in transfected cells; host or cells: L- or CHO-cells; conditions: @ 10 μM; cAMP relative to alpha-MSH defined as 100% agonist
Text: as §6
as §7, with “The phosphodiesterase inhibitor 3-isobutyl-1-methylxanthine was added to cells to 0.6 mM.” left out
cAMP was measured in an aliquot of the cell lysate with the Amersham (Arlington Heights, Ill.) cAMP detection assay (RPA556). […]
as §5

human MC-2R [5] = target: T4, human MC-2R; assay: Membrane binding assay, competition with 125I-NDP-alpha-MSH; parameters: expressed in transfected cells; host or cells: L- or CHO-cells (membranes); conditions: human receptor; average of at least 3 determinations
Experimental: as §1, §2, §3, §4, §5

erectile dysfunction = conditions: cited from earlier work; for duration of effect / onset of action: after an oral dose, men; for proportion of men/patients with adequate response: oral, erectile dysfunction patients
[6] = tested on: animal feeding models (NPY, ob/ob, agouti, fasted); conditions: injected intracerebroventricularly (ICV) in rodents; cited from earlier work
[7] = tested on: psychogenic erectile dysfunction; conditions: cited from earlier work
[8] = in vivo; cited from earlier work

T1 sequence (P33032 whole entry): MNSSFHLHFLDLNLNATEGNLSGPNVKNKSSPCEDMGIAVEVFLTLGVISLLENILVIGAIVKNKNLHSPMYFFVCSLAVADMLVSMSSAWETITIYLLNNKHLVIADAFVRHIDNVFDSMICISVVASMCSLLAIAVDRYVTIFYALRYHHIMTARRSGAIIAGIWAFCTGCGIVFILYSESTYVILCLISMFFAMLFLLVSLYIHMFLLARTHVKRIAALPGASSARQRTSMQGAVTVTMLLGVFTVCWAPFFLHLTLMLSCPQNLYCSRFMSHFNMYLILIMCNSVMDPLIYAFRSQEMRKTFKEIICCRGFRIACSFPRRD
T4 sequence (Q01718 whole entry): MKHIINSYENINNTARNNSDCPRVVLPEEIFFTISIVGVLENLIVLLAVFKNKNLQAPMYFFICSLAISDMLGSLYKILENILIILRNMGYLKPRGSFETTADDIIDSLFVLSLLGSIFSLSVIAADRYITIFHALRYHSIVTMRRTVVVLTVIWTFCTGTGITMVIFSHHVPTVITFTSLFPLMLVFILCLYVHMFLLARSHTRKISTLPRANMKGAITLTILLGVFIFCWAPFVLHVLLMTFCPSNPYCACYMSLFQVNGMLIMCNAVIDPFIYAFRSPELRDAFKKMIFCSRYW
T2 sequence (Q01726 whole entry): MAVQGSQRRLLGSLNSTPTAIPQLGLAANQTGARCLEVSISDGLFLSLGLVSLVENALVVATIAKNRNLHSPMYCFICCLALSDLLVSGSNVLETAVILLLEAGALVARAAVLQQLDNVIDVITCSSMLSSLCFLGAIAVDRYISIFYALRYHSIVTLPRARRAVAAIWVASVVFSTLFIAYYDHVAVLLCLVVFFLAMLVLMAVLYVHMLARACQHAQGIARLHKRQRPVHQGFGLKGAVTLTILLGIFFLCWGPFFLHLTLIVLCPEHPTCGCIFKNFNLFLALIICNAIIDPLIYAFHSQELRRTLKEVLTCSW
T3 sequence (P41968 whole entry): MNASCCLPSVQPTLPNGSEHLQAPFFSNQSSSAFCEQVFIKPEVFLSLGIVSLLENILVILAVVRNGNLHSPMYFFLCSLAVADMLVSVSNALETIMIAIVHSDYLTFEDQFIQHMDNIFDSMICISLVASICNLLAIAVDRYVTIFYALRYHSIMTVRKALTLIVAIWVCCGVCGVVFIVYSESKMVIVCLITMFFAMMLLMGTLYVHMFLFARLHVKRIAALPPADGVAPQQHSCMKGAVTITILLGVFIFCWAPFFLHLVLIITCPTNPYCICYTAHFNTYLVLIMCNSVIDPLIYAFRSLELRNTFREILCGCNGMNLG

- IC50 (human MC-5R [1]): 230 nM
- Functional Activity, agonist efficacy, MC-1R (human MC-1R): 84%
- Functional Activity, agonist efficacy, MC-3R (human MC-3R): 29%
- Functional Activity, agonist efficacy, MC-5R (human MC-5R [2]; cAMP relative to alpha-MSH at 10 μM defined as 100% agonist): 58%
- EC50 (human MC-5R [2]; human receptor, cAMP, average of at least 3 determinations): 530 nM
- Functional Activity, agonist efficacy, MC-2R (human MC-2R [4]): 0% @ 10 μM
- IC50 (human MC-2R [5]): > 10000 nM
Compound: O=C(N[C@H](Cc1ccc(Cl)cc1)C(=O)N1CCC(Cn2cncn2)(C2CCCCC2)CC1)[C@H]1Cc2ccccc2CN1 [Example 2]
- number of erections in conscious rat model of reflexogenic erections ([3]; administered by the intravenous (IV) route or by the oral (PO) route): effective in significantly increasing the number of erections
- penile erections, % Increase from Vehicle or Baseline ([3]; 0.3 mg/kg IV, placed supine 60 min after dosing, P = 0.05): 15* %
- penile erections, % Increase from Vehicle or Baseline ([3]; 1.0 mg/kg IV, placed supine 0 min after dosing, P = 0.05): 31%
- penile erections, % Increase from Vehicle or Baseline ([3]; 1.0 mg/kg IV, placed supine 60 min after dosing, P = 0.05): 35%
- penile erections, % Increase from Vehicle or Baseline ([3]; 5.0 mg/kg IV, placed supine 60 min after dosing, P = 0.01): 50** %
- penile erections, % Increase from Vehicle or Baseline ([3]; 10 mg/kg IV, placed supine 0 min after dosing, P = 0.01): 45%
- penile erections, % Increase from Vehicle or Baseline ([3]; 10 mg/kg IV, placed supine 60 min after dosing, P = 0.01): 38%
- penile erections, % Increase from Vehicle or Baseline ([3]; 20 mg/kg PO, placed supine 60 min after dosing, P = 0.01): 24** %
- penile erections, % Increase from Vehicle or Baseline ([3]; 20 μG ICV, placed supine 0 min after dosing, P = 0.05): 41* %

Compound: CN1CCc2cccc3c2[C@H]1Cc1ccc(O)c(O)c1-3 [apomorphine]
- efficacy of reference drugs in conscious rat model of reflexogenic erections [3]: effective

Compound: Cc1ccc(N(CC2=NCCN2)c2cccc(O)c2)cc1 [phentolamine]
- duration of effect (erectile dysfunction): 2 h
- onset of action (erectile dysfunction): 5 to 30 min
- proportion of men/patients with adequate response (erectile dysfunction): 35-40%

Compound: CCCc1nn(C)c2c(=O)[nH]c(-c3cc(S(=O)(=O)N4CCN(C)CC4)ccc3OCC)nc12 [sildenafil]
- efficacy of reference drugs in conscious rat model of reflexogenic erections [3]: effective
- duration of effect (erectile dysfunction): about 4 hours
- onset of action (erectile dysfunction): 30 to 60 min
- adverse effects associated with clinical use (erectile dysfunction; clinical use): headache, flushing, dyspepsia, and “abnormal vision
- proportion of men/patients with adequate response (erectile dysfunction): about 70%

Compound: Ac-Nle-c[Asp-His-DPhe-Arg-Trp-Lys]-NH2 [MT-II]
- effect on food intake [6]: reduces food intake
- adverse reactions observed ([7]; in vivo): nausea, flushing, loss of appetite, stretching, and yawning
- response rate ([7]; injected intramuscularly or subcutaneously to males with psychogenic erectile dysfunction): 75%
- duration of action ([7]; men): approximately 2.5 hours
- time to onset of erection ([7]; men): 10 to 20 min
- absorption into the systemic circulation by the oral route [8]: not absorbed into the systemic circulation

Compound: SHU-9119
- effect on food intake [6]: reverses this effect and can induce hyperphagia

— US6350760B1, “Substituted piperidines as melanocortin-4 receptor agonists” (Merck & Co., Inc., priority 1999, dated 2002)
